One data set concerns tubulin. Put plainly: Tubulin polymerization assay. To be noted: tested at 20 μM and 5 μM. More on the design: key: a compound showing 0 to 50% inhibition at 20 μM is reported as score 1; Score 2 compounds are defined as compound showing more than 50% inhibition at 20 μM and less than 50% inhibition at 5 μM; a compound showing more than 50% inhibition at 5 μM is reported as score 3. In kind it is biochemical. A digest of the protocol: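 Cytoskeleton kit tubulin was run in a 10 µl final volume at 37 °C, with fluorescence read every minute for 1 h. Polymerization was taken as the maximum slope (4-point linear regression) and expressed as % of no-compound control. Compounds were tested at 20 µM, then at 5 µM if inhibition exceeded 50%, and scored by % inhibition.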

Another data set deals with PC3 cells. As to the kind of experiment: EB1 Comet (microtubule disruption) assay. Format: cell-based, human. To be noted: Homo sapiens, PC-3, 1 h, 1 hour treatment, read-out: EB1 pLAC (converted). The essentials: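 PC3 human prostate cancer cells exposed to compound for 1 h at 37 °C (0.6% DMSO final), methanol-fixed, immunostained for Eb1 and imaged at 20×. Value is the lowest active concentration (LAC): the concentration at which Eb1 foci are absent in at least 50% of treated cells.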

Turning to `CCc1cc2ccc([C@@](C)(C#N)Cc3nc(OC)cc(OC)n3)cc2[nH]c1=O` (single isomer, unassigned) [Compound 53], the melting point (commonly the temperature of the solid-liquid transition) was 163 °C. Also, in the data set on tubulin, the tubulin polymerisation score was 3 (a compound showing more than 50% inhibition at 5 μM is reported as score 3). The minimal effective concentration with PC3 cells was 0.0316 µM.
Consider `CCc1cc2ccc(C(C)(C#N)Cc3nnsc3Cl)cc2[nH]c1=O` (stereo not drawn) [Compound 42], for which the melting point turned out to be 220 °C. The tubulin polymerisation score in the data set with tubulin was 1 (a compound showing 0 to 50% inhibition at 20 μM is reported as score 1). Moreover, in the data set on PC3 cells, the minimal effective concentration was 0.1 µM.
On the same counts, the results for `CCc1cc2ccc([C@@](C)(C#N)Cc3ccccc3)cc2[nH]c1=O` (single isomer, unassigned) [Compound 46] are 177 °C, 2 and 0.1 µM.

(Values after patent publication US8778966B2, “Quinolinone derivatives as PARP and tank inhibitors” (Janssen Pharmaceutica, NV, priority 2007, dated 2014).)
